Results published in patent US5461176A, “Processes for preparing bis-naphthalimides containing amino-acid derived linkers” (The Du Pont Merck Pharmaceutical Company, priority 1994, dated 1995).
Values after ≈ are worked out from the molar mass of the structure shown. Where two headings read alike, the source gives them in different places.

Assays:
[1] = system: MX-1 human mammary carcinoma; assay: In vivo human tumor xenograft model, MX-1 human mammary carcinoma in nude mice; conditions: i.v. once daily for nine consecutive days, NCI criteria
Description: (§1) The DLD-2 human colon tumor, MX-1 human mammary carcinoma, and LX-1 human lung tumor were originally obtained from a surgically removed primary colon carcinoma, breast tumor, and non-small lung carcinoma, respectively. The human tumor lines were maintained by serial passage in athymic nude mice. The MX-1 human mammary carcinoma and LX-1 human lung tumor are established tumors used by the NCI. The DLD-2, MX-1, and LX-1 tumor models have been well characterized.
(§2) The mice used in these experiments were outbred Swiss mice or BALB/c mice bearing the nude (nu/nu) gene. On day 0 male and female mice weighing 22-30 g are inoculated with 0.2 mL of a 25% tumor mince. This mince is prepared by mincing fresh tumor tissue, grown subcutaneously in passage mice, in sterile physiological saline. Palpable tumors weighing approximately 50 mg appear in the mice within 7-10 days after inoculation. The mice are pair matched by tumor weight and sex into groups of ten each and the test compounds and vehicle control are administered intravenously (i.v.) once daily for nine consecutive days. A >20% decrease in body weight on day 5 following compound administration is considered an indication of toxicity. Tumor measurements and body weights are recorded once a week. Fifteen to 18 days after the initial injection the mice are weighed, sacrificed and the tumors excised and weighed.
(§3) The efficacy of the test compounds is determined by the extent of tumor growth inhibition in treated versus vehicle-treated control mice. Initial tumor weights (mg) are calculated from the tumor dimensions (mm) measured from caliper measurements, using the formula for a prolate ellipsoid (mg of tumor weight=(length×width^2)/2). Net tumor weights are calculated for each of the treated groups and the vehicle-treated control group by subtracting the initial tumor weight from the final tumor weight on day 15. Results are expressed as a percentage decrease relative to the mean tumor weight for the control vehicle-treated group. [formula]
(§4) The criteria of the National Cancer Institute (NCI) for activity in the in vivo cancer models were used. Tumor growth inhibition of 58-89% in the DLD-2 assay is considered moderate activity and inhibition of ≥90% is condidered good to excellent activity.

LX-1 human lung tumor = assay: In vivo human tumor xenograft model, LX-1 human lung tumor in nude mice; conditions: i.v. once daily for nine consecutive days, NCI criteria
Description: as §1, §2, §3, §4

DLD-2 human colon tumor = assay: In vivo human tumor xenograft model, DLD-2 human colon tumor in nude mice; conditions: i.v. once daily for nine consecutive days, tumor growth inhibition, NCI criteria
Description: as §1, §2, §3, §4

[2] = system: murine leukemia L1210 cells; assay: In vitro growth inhibition of L1210 cells (MTT); type: cell-based; conditions: Mus musculus
Experimental: L1210 cells were maintained in RPMI-1640 a medium supplemented with 10% heat inactivated fetal bovine serum and […] (RPMI-L). B16 cells were maintained in RPMI-1640 medium supplemented with 15% heat inactivated fetal bovine serum and antiobiotics (RPMI-C).
Exponentially growing murine leukemia L1210 cells (1×10^3 cells) in 0.1 mL medium were seeded on day 0 in a 96-well microtiter plate. On day 1, […] aliquot of medium containing graded concentrations of test analogs was added to the initial volume. After incubation at 37° C. in a humidified incubator for 3 days, the plates were centrifuged briefly and […] of the growth medium was removed. Cell cultures were incubated with 50 μL of 3-(4,5-dimethylthiazol-2-yl)-2,5-diphenyltetrazolium bromide (MTT; 1 mg/ml in Dulbecco's phosphate buffer saline) for 4 hours at 37° C. The resulting purple formazan precipitate was solubilized with 200 μL of 0.04N HCl in isopropyl alcohol. Absorbance was read in a Titertek Multiskan MCC scaning well spectrophotometer (Flow Laboratories) at a test wavelength of 570 nm and a reference wavelength of 630 nm.
The ID50 values were determined by a computer program that fit all of the data (8 determinations per concentration and 12 concentrations per test analog) to the following equation:
Y=((Am-Ao)/(1+(X/ID50)n))+Ao
where: Am=absorbance of the control cells; Ao=absorbance of the cells in the presence of highest drug concentration; Y=observed absorbance; X=drug concentration; ID50 =dose of drug that inhibits the growth of cells to one half that of the control cells.

| IC50 ([2]; 72 h, murine leukemia L1210 cells, 3 days incubation, MTT, read-out: ID50 (the source's name)) [µg/mL] | Structure (SMILES) | activity in the MX-1 human breast tumor model [1] | activity against LX-1 human lung tumors (LX-1 human lung tumor) | activity against DLD-2 human colon tumors (DLD-2 human colon tumor) | IC50 ([2]; L1210, 72 h, read-out: ID50) [µg/mL] |
| --- | --- | --- | --- | --- | --- |
| – | CC(CNCCNCC(C)N1C(=O)c2cccc3cc([N+](=O)[O-])cc(c23)C1=O)N1C(=O)c2cccc3cc([N+](=O)[O-])cc(c23)C1=O (racemic) [Example 2, (Racemate+meso)-2,2'-[1,2-ethanediylbis[imino(1-methyl-2,1-ethanediyl)]]-bis[5-nitro-1H-benz[de]isoquinoline-1,3(2H) -dione]methanesulfonate (1:2)] | excellent to outstanding activity | good to excellent activity (inhibition of ≥90% is condidered good to excellent activity) | excellent to outstanding activity | 0.062 (≈ 0.0993 µM) |
| – | CC(CN1C(=O)c2cccc3cc([N+](=O)[O-])cc(c23)C1=O)NCCNC(C)CN1C(=O)c2cccc3cc([N+](=O)[O-])cc(c23)C1=O (racemic) [Example 30] | excellent to outstanding activity | – | excellent to outstanding activity | < 0.01 |
| – | C[C@@H](CN1C(=O)c2cccc3cc([N+](=O)[O-])cc(c23)C1=O)NCCN[C@@H](C)CN1C(=O)c2cccc3cc([N+](=O)[O-])cc(c23)C1=O (relative stereo) [Example 42] | – | – | – | < 0.001 |
| – | C[C@@H](CNCCNC[C@H](C)N1C(=O)c2cccc3cc([N+](=O)[O-])cc(c23)C1=O)N1C(=O)c2cccc3cc([N+](=O)[O-])cc(c23)C1=O [Example 1, (S,S)-2,2'-[1,2-ethanediylbis[imino(1-methyl-2,1-ethanediyl)]]-bis[5-nitro-1H-benz[de]isoquinoline-1,3(2H)-dione]methanesulfonate (1:2)] | good to excellent activity (inhibition of ≥90% is condidered good to excellent activity) | – | excellent to outstanding activity | 0.047 (≈ 0.0752 µM) |
| – | C[C@H](CNCCNC[C@@H](C)N1C(=O)c2cccc3cc([N+](=O)[O-])cc(c23)C1=O)N1C(=O)c2cccc3cc([N+](=O)[O-])cc(c23)C1=O [Example 3, (R,R)-2,2'-[1,2-ethanediylbis[imino(1-methyl-2,1-ethanediyl)]]-bis[5-nitro-1H-benz[de]isoquinoline-1,3(2H)-dione]methanesulfonate (1:2)] | excellent to outstanding activity | good to excellent activity (inhibition of ≥90% is condidered good to excellent activity) | excellent to outstanding activity | 0.051 (≈ 0.0817 µM) |
| – | C[C@H](CNCCNC[C@H](C)N1C(=O)c2cccc3cc([N+](=O)[O-])cc(c23)C1=O)N1C(=O)c2cccc3cc([N+](=O)[O-])cc(c23)C1=O [Example 26, (Meso)-2,2'-[1,2-ethanediylbis[imino(1-methyl-2,1-ethanediyl)]]-bis[5-nitro-1H-benz[de]isoquinoline-1,3(2H)-dione]methanesulfonate (1:2)] | – | – | excellent to outstanding activity | 0.074 (≈ 0.118 µM) |
| – | C[C@@H](CN1C(=O)c2cccc3cc([N+](=O)[O-])cc(c23)C1=O)NCCN[C@@H](C)CN1C(=O)c2cccc3cc([N+](=O)[O-])cc(c23)C1=O [Example 27, (S,S)-2,2'-[1,2-ethanediylbis[imino(2-methyl-2,1-ethanediyl)]]-bis[5-nitro-1H-benz[de]isoquinoline-1,3(2H)-dione]methanesulfonate (1:2)] | excellent to outstanding activity | good to excellent activity (inhibition of ≥90% is condidered good to excellent activity) | excellent to outstanding activity | 0.0025 (≈ 0.004 µM) |
| 0.21 (≈ 0.393 µM) | C[C@@H](CN1C(=O)c2cccc3cccc(c23)C1=O)NCCN[C@@H](C)CN1C(=O)c2cccc3cccc(c23)C1=O [Example 28, (S,S)-2,2'-[1,2-ethanediylbis[imino(2-methyl-2,1-ethanediyl)]]-bis[^1 H-benz[de]isoquinoline-1,3(2H)-dione]methanesulfonate (1:2)] | – | – | – | – |
| – | CS(=O)(=O)O.CS(=O)(=O)O.C[C@H](CN1C(=O)c2cccc3cc([N+](=O)[O-])cc(c23)C1=O)NCCN[C@H](C)CN1C(=O)c2cccc3cc([N+](=O)[O-])cc(c23)C1=O [Example 29, (R,R)-2,2'-[1,2-ethanediylbis[imino(2-methyl)-2,1-ethanediyl)]-bis[5-nitro-1H-benz[de]isoquinoline-1,3(2H)-dione]-methanesulfonate (1:2)] | excellent to outstanding activity | good to excellent activity (inhibition of ≥90% is condidered good to excellent activity) | good to excellent activity (inhibition of ≥90% is condidered good to excellent activity) | < 0.01 |
| – | C[C@H](CN1C(=O)c2cccc3c([N+](=O)[O-])ccc(c23)C1=O)NCCN[C@H](C)CN1C(=O)c2cccc3c([N+](=O)[O-])ccc(c23)C1=O [Example 31] | – | – | – | 0.19 (≈ 0.304 µM) |
| – | C[C@H](CN1C(=O)c2cc([N+](=O)[O-])cc3cc([N+](=O)[O-])cc(c23)C1=O)NCCN[C@H](C)CN1C(=O)c2cc([N+](=O)[O-])cc3cc([N+](=O)[O-])cc(c23)C1=O [Example 32] | – | – | – | 0.057 (≈ 0.0798 µM) |
| – | C[C@@H](CN[C@@H](C)CN1C(=O)c2cccc3cc([N+](=O)[O-])cc(c23)C1=O)NC[C@H](C)N1C(=O)c2cccc3cc([N+](=O)[O-])cc(c23)C1=O [Example 43] | – | – | – | 0.04 (≈ 0.0626 µM) |
